Experiment: Sweetness enhancement taste panel (sweetness and licorice taste ratings of 5% sucrose solutions)
Assay type: in vivo, human
Conditions: taste panel rating on a scale from 0 to 10; compound at 50 ppm in 5% sucrose solution in Henniez water; no flavor modifier = 5.0
Method: A test compounds were tested for its sweetness enhancement of a 5% (w/w) aqueous solution of sucrose. Taste panelists were asked to taste the following 5% sucrose solutions in Henniez water and rate their sweetness on a scale from 0 to 10, and to rate the presence of any licorice taste in the sample on a scale from 0 to 10.

Compound: CC1(C)[C@@H](O[C@@H]2O[C@H](C(=O)O)[C@@H](O)[C@H](O)[C@H]2O)CC[C@]2(C)[C@H]3C(=O)C=C4[C@@H]5C[C@@](C)(C(=O)O)CC[C@]5(C)CC[C@@]4(C)[C@]3(C)CC[C@@H]12 [Compound 108, β-Glycyrrhizin Monoglucuronate]
- Sweetness (0-10): 5.8
